Measurements as given in paper PMC6099623, “Novel Thiazolidinone/Thiazolo[3,2-a]Benzimidazolone-Isatin Conjugates as Apoptotic Anti-proliferative Agents Towards Breast Cancer: One-Pot Synthesis and In Vitro Biological Evaluation” (Molecules : A Journal of Synthetic Chemistry and Natural …, 2018).
Read-outs that look alike come from different tables or passages of the source.

Experiments:
MDA-MB-231 cells [1] = experiment: Cell cycle analysis by DNA flow cytometry; assay type: cell-based; conditions: 24 h at IC50 concentration
Protocol: The effect of hybrid 4m on cell cycle progression was evaluated in TNBC MDA-MB-231 cells after 24 h of treatment (Figure 4). Such impact was illustrated by DNA flow cytometric assay where MDA-MB-231 cells were treated with conjugate 4m at its IC50 concentration.
Subsequently, the treated cells were collected by centrifugation, fixed in ice-cold 70% (v/v) ethanol, washed with PBS, re-suspended with 100 μg/mL RNase, stained with 40 μg/mL PI, and analyzed by flow cytometry using FACS Calibur (Becton Dickinson, BD, Franklin Lakes, NJ, USA). The cell cycle distributions were calculated using CellQuest software 5.1 (Becton Dickinson).

[2] = tested on: lung fibroblast cell line (WI-38); experiment: Crystal violet cytotoxicity towards nontumorigenic WI-38; assay type: cell-based; conditions: Homo sapiens, nontumorigenic cells, mean ± S.D. of three separate experiments
Protocol: (§1) The cytotoxic activity of the active conjugates towards MDA-MB-231 cells (4c–e, 4g, 4l–n and 7a–d) was examined against nontumorigenic human lung fibroblast cell line (WI-38) and human breast epithelial cell line (MCF-10A) to investigate the potential safety of the newly prepared conjugates towards the normal cells. […] The results were expressed as IC50 values, and selectivity index was calculated (Table 2).
(§2) The cytotoxic activity of the active conjugates towards nontumorigenic human lung fibroblast cell line (WI-38) and human breast epithelial cell line (MCF-10A) was determined using Crystal violet (CV) cell cytotoxicity assay according to the previously published procedures.

[3] = tested on: MCF-7 breast cancer cell line; experiment: Crystal Violet antiproliferative assay, MCF-7; assay type: cell-based; conditions: for IC50: Homo sapiens, MCF7, 48 h, Crystal Violet assay, 48 h of incubation, mean ± S.D. of three separate experiments
Protocol: (§3) The in vitro antiproliferative activity of the newly synthesized conjugates 4a–n and 7a–d was evaluated against breast cancer MDA-MB-231 and MCF-7 cell lines, following the Crystal Violet (CV) cell cytotoxicity assay. Doxorubicin was included in this assay as a positive control, and Sunitinib was used as a reference drug.
(§4) Breast cancer cell lines MDA-MB-231 and MCF-7 cells were obtained from VACSERA Tissue Culture Unit. The cells were propagated in DMEM supplemented with 10% heat-inactivated fetal bovine serum, 1% L-glutamine (2.5 mM), HEPES (4-(2-hydroxyethyl)-1-piperazineethanesulfonic acid) buffer (10 mM) and 50 µg/mL gentamycin. All cells were maintained at 37 °C in a humidified atmosphere with 5% CO2 and were sub-cultured two times a week. Cytotoxicity was determined following the Crystal Violet (CV) cell cytotoxicity assay.
(§5) Test samples were dissolved in DMSO and kept at a stock concentration of 100 mM. Exponentially growing cells were collected using 0.25% Trypsin-EDTA and seeding was done at a density of 3000 cells/well in 96-well plates. After 24 h, the monolayer cultured cells were washed with sterile phosphate buffered saline (0.01 M pH 7.2) and simultaneously the cells were treated with […] from 10 different dilutions of the test compounds as well as Doxorubicin was […] Control wells were exposed to the same concentration of vehicle, DMSO (1%) used in the highest concentration of the test samples. Cell viability was >99% compared to untreated cells. The number of the surviving cells was determined by staining the cells with crystal violet followed by cell lysing using 33% glacial acetic acid. The absorbance was measured at 490 nm using ELISA reader (Thermo Fisher Scientific, Waltham, MA, USA) after gentle shaking. The absorbance values from untreated cells were considered as 100% proliferation.
(§6) The number of viable cells was determined using ELISA reader as previously mentioned and the percentage of viability was calculated as […] where ODt is the mean optical density of wells treated with the test sample and ODc is the mean optical density of untreated cells. The 50% inhibitory concentration (IC50) was estimated from graphic plots of the dose response curve for each conc. using GraphPad Prism software, Version 5 (San Diego, CA, USA). The data presented are the mean of at least three separate experiments.

caspase-3 = experiment: ELISA immunoassay of active caspase-3 level in MDA-MB-231 cells; assay type: cell-based; conditions: MDA-MB-231 cells treated at IC50 concentration, 48 h
From the text: The down-regulation of the antiapoptotic Bcl-2 leads to an increase in the levels of free pro-apoptotic Bax which in turn accumulates at the inner mitochondrial membrane forming channels, altering membrane permeability. Accordingly, the apoptotic factors can leak into the cytoplasm resulting in the caspases cascade activation. As a key executioner protease, caspase-3 is activated by upstream initiator caspases as caspase-9 [48]. Thence, the elevated Bax/Bcl-2 ratios obtained herein triggered the examination of the protein expression levels of active caspases-3. Treatment of TNBC MDA-MB-231 cells with conjugates 4m and 7b led to a significant increase in the active caspase-3 levels by 6.4 and 4.9 folds, respectively, compared to control (Table 3, Figure 3).
(§7) The levels of the apoptotic markers (Bax, caspase-3) as well as the antiapoptotic marker Bcl-2 were determined using ELISA colorimetric kits per the manufacturer’s instructions, as reported earlier. MDA-MB-231 cells were cultured as a monolayer in T-25 flasks and were seeded to attain 30% confluency prior to treatment. […] At the end of treatment, cells were collected via trypsinization and centrifuged at 10,000 rpm. The pellet was then rinsed with PBS and lysed in RIPA lysis buffer at 4 °C for 45 min, then centrifuged at 14,000 rpm for 20 min to remove the cellular debris. Lysates were then collected and stored at −80 °C for later protein determination using Pierce BCA Protein Assay Kit (Pierce Biotechnology, Rockford, IL, USA) according to manufacturer’s recommendations.
(§8) The cell lysate was diluted 10 times, and 100 μL ([…]) was added to the wells of […] that were pre-coated with primary antibodies specific to Bax, Bcl-2 and caspase-3 proteins, respectively. A secondary biotin-linked antibody specific to the protein captured by the primary antibody was further added to bind the captured protein, forming a “sandwich” of specific antibodies around the desired protein in the cell lysate. The streptavidin-HRP complex was then used to bind the biotin-linked secondary antibody through its streptavidin portion. The HRP domain reacted with the added TMB substrate to form a colored product that measured at 450 nm by a plate reader (ChroMate-4300, Orlando, FL, USA) after the reaction was terminated via the addition of stop solution.

MDA-MB-231 cells [4] = experiment: Annexin V-FITC/PI apoptosis assay; assay type: cell-based; conditions: MDA-MB-231 at IC50 concentration
Protocol: Annexin V-based flow cytometry assay elucidates either that cell death is achieved via programmed apoptosis or nonspecific necrosis.
Phosphatidylserine externalization was assayed using Annexin V-FITC/PI apoptosis detection kit (BD Biosciences, San Jose, CA, USA) according to the manufacturer’s instructions, as reported earlier. MDA-MB-231 cells were cultured to a monolayer then treated with conjugate 4m at its IC50 concentration as described earlier. Cells were then harvested via trypsinization, and rinsed twice in PBS followed by binding buffer. Moreover, cells were re-suspended in 100 μL of binding buffer with the addition of 1 μL of FITC-Annexin V (Becton Dickinson BD Pharmingen^TM, Heidelberg, Germany) followed by an incubation period of 30 min at 4 °C. Cells were then rinsed in binding buffer and resuspended in 150 μL of binding buffer with the addition of 1 μL of DAPI (1 μg/μL in PBS) (Invitrogen, Life Technologies, Darmstadt, Germany). Cells were then analyzed using the flow cytometer BD FACS Canto II (BD Biosciences, San Jose, CA, USA) and the results were interpreted with FlowJo7.6.4 software (Tree Star, Ashland, OR, USA).

[5] = tested on: MDA-MB-231 breast cancer cell line; experiment: Crystal Violet antiproliferative assay, MDA-MB-231; assay type: cell-based; conditions: Homo sapiens, MDA-MB-231, 48 h, 48 h of incubation, mean ± S.D. of three separate experiments
Protocol: as §3, §4, §5, §6

Bcl-2 = experiment: ELISA immunoassay of Bcl-2 level in MDA-MB-231 cells; assay type: cell-based; conditions: MDA-MB-231 cells treated at IC50 concentration; for Bcl-2 / Bcl-2, number of folds of control: 48 h
Protocol: (§9) In our study, we investigated the effect of conjugates 4m and 7b towards the level of the antiapoptotic Bcl2 and the level of the pro-apoptotic Bax, (Table 3, Figure 2).
as §7, §8

Bax = experiment: ELISA immunoassay of Bax level in MDA-MB-231 cells; assay type: cell-based; conditions: MDA-MB-231 cells treated at IC50 concentration; for Bax / Bax, number of folds of control: 48 h; for Bax/Bcl-2: control 3.9
Protocol: as §9, §7, §8

[6] = tested on: breast epithelial cell line (MCF-10A); experiment: Crystal violet cytotoxicity towards nontumorigenic MCF-10A; assay type: cell-based, human; conditions: for IC50: Homo sapiens, MCF-10A, nontumorigenic cells, mean ± S.D. of three separate experiments; for Selectivity Index (MCF-10A/MDA-MB-231): ratio of IC50 MCF-10A to IC50 MDA-MB-231
Protocol: as §1, §2

[7] = tested on: MCF-7 breast cancer cell line; parameters: method as in PMID 28802125; conditions: earlier work of the authors; cited from earlier work

Compound	IC50 [2] [µM]	IC50 [3] [µM]	Caspase-3 (caspase-3)	Caspase-3, number of folds of control (caspase-3)	IC50 [5] [µM]	Downregulation of Bcl-2 expression level compared to control (Bcl-2) [%]	Bcl-2 (Bcl-2)	Bcl-2, number of folds of control (Bcl-2)	Boost of Bax/Bcl-2 ratio compared to control (Bax) [folds]	Bax (Bax)	Bax, number of folds of control (Bax)	Bax/Bcl-2 (Bax)	IC50 [6] [µM]	Selectivity Index (MCF-10A/MDA-MB-231) [6]	also measured
Cc1ccc(N=C2SC(=C3C(=O)Nc4ccc(C)cc43)C(=O)N2c2ccc(C)cc2)cc1 [Compound 4m, 5-(5-Methyl-2-oxoindolin-3-ylidene)-3-(p-tolyl)-2-(p-tolylimino)thiazolidin-4-one]	49.1 ± 1.9	8.4 ± 0.5	0.19 ± 0.01 ng/mg of Total Protein	6.4 folds of control	7.6 ± 0.5	66.6	2.1 ± 0.1 ng/mg of Total Protein	0.33 folds of control	33	274.8 ± 13.5 pg/mg of Total Protein	11.1 folds of control	130.5	73.1 ± 2.7	9.6	Arrest in G2-M phase compared to control (MDA-MB-231 cells [1]): 2.5 folds; Rise in percentage of cells at Sub-G1 compared to control (MDA-MB-231 cells [1]): 4 folds; Decreased activity against MCF-7 relative to doxorubicin ([3]; IC50 ratio to doxorubicin): 2.2 fold; Increase of annexin V-FITC-positive apoptotic cells compared with control (MDA-MB-231 cells [4]): about 6 folds; Percent of annexin V-FITC-positive apoptotic cells, early and late (UR + LR) (MDA-MB-231 cells [4]; control 1.92%): 11.43%
COc1ccc2c(c1)C(=c1sc3nc4ccccc4n3c1=O)C(=O)N2 [Compound 7b, 2-(5-Methoxy-2-oxoindolin-3-ylidene)benzo[4,5]imidazo[2,1-b]thiazol-3(2H)-one]	121 ± 6.9	21.7 ± 1.5	0.15 ± 0.01 ng/mg of Total Protein	4.9 folds of control	13.2 ± 1.7	55.1	2.8 ± 0.1 ng/mg of Total Protein	0.45 folds of control	16	180.0 ± 7.3 pg/mg of Total Protein	7.3 folds of control	64.1	184 ± 8	13.9	melting point: > 300 °C
NS(=O)(=O)c1ccc(/N=C2\NC(=O)/C(=C3/C(=O)Nc4ccc(Cl)cc43)S2)cc1 [compound VI]															IC50 [7]: 3.96 ± 0.21 µM
